Patent publication US11872225B2, “Pyruvate kinase modulators and use thereof” (Agios Pharmaceuticals, Inc., priority 2017, dated 2024)

biological target: wild type PKM2 (Homo sapiens, UniProt P14618); assay: PKM2 Assay (LDH/NADH-coupled, absorbance at 340 nm); format: biochemical; details: wild type PKM2 activation; 60 min preincubation at 25° C.; ADP 0.4 mM, PEP 0.11 mM; read-out: PKM2 WT AC50
Description: A compound described herein may be tested for its ability to activate PKM2. For simplicity, the activation activity of these compounds is represented as an AC50 in Table 2. In Tables 2, a compound described herein may have an AC50 of wild type PKM2.
PKM2 enzyme stock solution was diluted to prepare a 1.11× Reaction Mix (without ADP). 1 μL of test compound was first added to the wells followed by 40 μL of 1.11× Reaction Mix (without ADP) and incubated at room temperature (25° C.) for 60 min. The reaction was initiated with 10 μL ADP (0.4 mM final concentration), bringing the final Reaction Mix to 1×, and the reaction progress was measured as changes in absorbance at 340 nm wavelength at room temperature.
Test compound preparation: Test compounds were prepared at 50× final concentration in DMSO. 1 to 3 dilutions were made for 11 points (for example 50 μL of 5000 μM compound was added to 100 μL 100% DMSO to yield a 1667 μM, 50 μL of this added to 100 μL DMSO to yield 556 μM, and so forth). The compounds were added to the assay as a 1 to 50 dilution (1 μL in 50 μL) to yield a top concentration of 100 μM, decreasing 3-fold for 11 points.
Reaction Mix: PKM2 (5 ng/well, 0.1 μg/ml), ADP (0.4 mM), PEP (0.11 mM), NADH (180 μM), LDH (0.005 U/μL, Sigma #L3888), 1 mM DTT, 0.03% BSA in 1× Reaction Buffer
Reaction Buffer: 100 mM KCl, 50 mM Tris pH 7.5, 5 mM MgCl2.

Chain of wild type PKM2 (P14618 whole entry): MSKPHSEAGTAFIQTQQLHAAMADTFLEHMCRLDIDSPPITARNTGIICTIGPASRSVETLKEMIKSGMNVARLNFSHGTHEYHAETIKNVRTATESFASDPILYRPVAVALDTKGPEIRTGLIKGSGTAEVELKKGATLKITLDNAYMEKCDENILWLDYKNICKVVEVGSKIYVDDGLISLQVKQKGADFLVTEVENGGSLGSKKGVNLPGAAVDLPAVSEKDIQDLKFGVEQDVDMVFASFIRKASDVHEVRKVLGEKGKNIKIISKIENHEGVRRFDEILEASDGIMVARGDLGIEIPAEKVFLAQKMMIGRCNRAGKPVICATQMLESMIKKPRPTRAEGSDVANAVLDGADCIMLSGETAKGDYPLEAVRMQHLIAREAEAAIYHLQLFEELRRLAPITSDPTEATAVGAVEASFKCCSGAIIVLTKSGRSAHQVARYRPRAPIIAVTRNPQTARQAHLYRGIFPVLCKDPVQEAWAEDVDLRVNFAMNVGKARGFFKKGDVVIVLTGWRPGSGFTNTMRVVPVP

Row | AC50 [µM] | Compound
1 | < 0.3 | Cn1ccc(Cn2ncc3c4sc(Cc5cc[nH]n5)nc4n(C)c3c2=O)n1 [Compound 83]
2 | 0.301 to 0.8 | Cn1c2nc(Cc3cc[nH]n3)sc2c2cnn(Cc3ccc(C(N)=O)cn3)c(=O)c21 [Compound 119]
3 | < 0.3 | Cn1c2nc(Cc3cc[nH]n3)sc2c2cnn(Cc3ccccc3)c(=O)c21 [Compound 72]
4 | < 0.3 | Cn1cc(Cc2nc3c(s2)c2cnn(Cc4cccc(C(N)=O)c4)c(=O)c2n3C)cn1 [Compound 128]
5 | > 0.8 | Cn1c2nc(Cc3ccc(C(N)=O)cc3)sc2c2cnn(Cc3cccc4[nH]ncc34)c(=O)c21 [Compound 42]
6 | < 0.3 | Cn1c2nc(Cc3n[nH]cc3F)sc2c2cnn(Cc3cc[nH]n3)c(=O)c21 [Compound 111]
7 | > 0.8 | Cn1c2nc(Cc3ccncc3)sc2c2cnn(Cc3cccc4[nH]ncc34)c(=O)c21 [Compound 57]
8 | > 0.8 | Cn1c2nc(NC(=O)Cc3cc[nH]n3)sc2c2cnn(Cc3cccc4[nH]ncc34)c(=O)c21 [Compound 64]
9 | > 0.8 | COC(=O)C(c1cc[nH]n1)c1nc2c(s1)c1cnn(Cc3cccc4[nH]ncc34)c(=O)c1n2C (stereo not shown) [Compound 58]
10 | 0.301 to 0.8 | CCOC(=O)c1cccc(Cn2ncc3c4sc(C)nc4n(C)c3c2=O)c1 [Compound 4]
11 | 0.301 to 0.8 | Cn1c2nc(Cc3n[nH]cc3F)sc2c2cnn(Cc3n[nH]cc3OC(F)(F)F)c(=O)c21 [Compound 121]
12 | > 0.8 | CCOC(c1cscn1)c1nc2c(s1)c1cnn(Cc3c[nH]nn3)c(=O)c1n2C (stereo not shown) [Compound 114]
13 | > 0.8 | Cn1c2nc(Cc3csc(C(N)=O)n3)sc2c2cnn(Cc3cccc4[nH]ncc34)c(=O)c21 [Compound 79]
14 | > 0.8 | Cn1c2nc(C(O)c3ccccn3)sc2c2cnn(Cc3cccc4[nH]ncc34)c(=O)c21 (stereo not shown) [Compound 48]
15 | < 0.3 | CNCc1nc2c(s1)c1cnn(Cc3cccc4[nH]ncc34)c(=O)c1n2C [Compound 46]
16 | < 0.3 | Cn1cc(Cc2nc3c(s2)c2cnn(Cc4cccc5[nH]ncc45)c(=O)c2n3C)cn1 [Compound 66]
17 | < 0.3 | Cn1c2nc(Cc3cc[nH]n3)sc2c2cnn(Cc3ccn[nH]3)c(=O)c21 [Compound 63]
18 | < 0.3 | Cn1c2nc(Cc3csc(CO)n3)sc2c2cnn(Cc3cc[nH]n3)c(=O)c21 [Compound 90]
19 | > 0.8 | Cc1nc2c(s1)c1cnn(Cc3ccc([N+](=O)[O-])cc3)c(=O)c1n2C [Compound 17]
20 | < 0.3 | Cn1c2nc(Cc3cc[nH]n3)sc2c2cnn(Cc3cncs3)c(=O)c21 [Compound 70]
21 | < 0.3 | Cn1c2nc(Cc3cc[nH]n3)sc2c2cnn(Cc3c[nH]nn3)c(=O)c21 [Compound 89]
22 | 0.301 to 0.8 | Cn1cc(CN)c(Cn2ncc3c4sc(Cc5cc[nH]n5)nc4n(C)c3c2=O)n1 [Compound 124]
23 | < 0.3 | Cn1ccc(Cn2ncc3c4sc(Cc5cccc(N)n5)nc4n(C)c3c2=O)n1 [Compound 109]
24 | 0.301 to 0.8 | Cc1nc2c(s1)c1cnn(Cc3cccc4cn[nH]c34)c(=O)c1n2C [Compound 23]
25 | < 0.3 | COC(=O)C(c1ccccc1)c1nc2c(s1)c1cnn(Cc3cccc4[nH]ncc34)c(=O)c1n2C (stereo not shown) [Compound 51]

Row | AC50 [µM] | Compound
26 | 0.301 to 0.8 | CSc1nc2c(s1)c1cnn(Cc3cccc(S(N)(=O)=O)c3)c(=O)c1n2C [Compound 41]
27 | < 0.3 | C=Cc1nc2c(s1)c1cnn(Cc3cccc(OC)c3)c(=O)c1n2C [Compound 11]
28 | < 0.3 | Cn1c2nc(Cc3cc[nH]n3)sc2c2cnn(Cc3ccnc(N)n3)c(=O)c21 [Compound 134]
29 | < 0.3 | COc1ncc(Cc2nc3c(s2)c2cnn(Cc4cccc5[nH]ncc45)c(=O)c2n3C)cn1 [Compound 80]
30 | < 0.3 | Cn1ccc(Cn2ncc3c4sc(Cc5cscn5)nc4n(C)c3c2=O)n1 [Compound 96]
31 | < 0.3 | Cc1nc2c(s1)c1cnn(Cc3cccc4c3cnn4C)c(=O)c1n2C [Compound 28]
32 | < 0.3 | Cn1c2nc(Cc3cc[nH]n3)sc2c2cnn(CCc3cccc(N)n3)c(=O)c21 [Compound 126]
33 | < 0.3 | Cc1nc2c(s1)c1cnn(Cc3cccc(F)c3)c(=O)c1n2C [Compound 2]
34 | < 0.3 | COc1cccc(Cn2ncc3c4sc(S(=O)(=O)c5ccccc5)nc4n(C)c3c2=O)c1 [Compound 10]
35 | < 0.3 | Cn1c2nc(Cc3cc[nH]n3)sc2c2cnn(Cc3cccc4[nH]ncc34)c(=O)c21 [Compound 31]
36 | < 0.3 | Cn1c2nc(Cc3cc[nH]n3)sc2c2cnn(Cc3csc(CO)n3)c(=O)c21 [Compound 68]
37 | 0.301 to 0.8 | Cc1nc2c(s1)c1cnn(Cc3cccc(F)n3)c(=O)c1n2C [Compound 9]
38 | < 0.3 | Cn1c2nc(Cc3cc[nH]n3)sc2c2cnn(Cc3nccs3)c(=O)c21 [Compound 78]
39 | < 0.3 | Cc1cccc(Cn2ncc3c4sc(Cc5cc[nH]n5)nc4n(C)c3c2=O)n1 [Compound 73]
40 | > 0.8 | COCc1cn(C)nc1Cn1ncc2c3sc(Cc4cc[nH]n4)nc3n(C)c2c1=O [Compound 120]
41 | > 0.8 | Cn1c2nc(C3(c4ccccc4)CC3)sc2c2cnn(Cc3cccc4[nH]ncc34)c(=O)c21 [Compound 53]
42 | > 0.8 | Cc1nc2c(s1)c1cnn(CO)c(=O)c1n2C [Compound 7]
43 | 0.301 to 0.8 | Cc1nc2c(s1)c1cnn(Cc3cccc([N+](=O)[O-])c3)c(=O)c1n2C [Compound 16]
44 | < 0.3 | Cn1c2nc(Cc3cc[nH]n3)sc2c2cnn(Cc3nc(N)ccc3F)c(=O)c21 [Compound 107]
45 | < 0.3 | Cn1c2nc(Cc3cccc(N)n3)sc2c2cnn(Cc3cc[nH]n3)c(=O)c21 [Compound 101]
46 | < 0.3 | Cn1c2nc(C#N)sc2c2cnn(Cc3csc(N)n3)c(=O)c21 [Compound 54]
47 | > 0.8 | Cn1ccc(Cn2ncc3c4sc(CCc5cccnc5)nc4n(C)c3c2=O)n1 [Compound 141]
48 | > 0.8 | Cn1c2nc(Cc3cncnc3)sc2c2cnn(Cc3cccc4[nH]ncc34)c(=O)c21 [Compound 56]
49 | > 0.8 | CSc1nc2c(s1)c1cnn(Cc3csc(-n4c(C)ccc4C)n3)c(=O)c1n2C [Compound 47]
50 | < 0.3 | Cn1c2nc(Cc3cc[nH]n3)sc2c2cnn(Cc3nccc(N)n3)c(=O)c21 [Compound 135]

Row | AC50 [µM] | Compound
51 | < 0.3 | Cn1c2nc(Cc3ccccn3)sc2c2cnn(Cc3nccs3)c(=O)c21 [Compound 91]
52 | < 0.3 | Cn1c2nc(Cc3c[nH]nn3)sc2c2cnn(Cc3cccc(N)n3)c(=O)c21 [Compound 104]
53 | > 0.8 | Cn1c2nc(C(c3cccc4[nH]ncc34)S(=O)(=O)c3ccccc3)sc2c2cnn(Cc3cccc4[nH]ncc34)c(=O)c21 (stereo not shown) [Compound 50]
54 | > 0.8 | O=c1c2c(cnn1Cc1ccccc1)c1sc(Cc3cc[nH]n3)nc1n2Cc1ccccc1 [Compound 142]
55 | 0.301 to 0.8 | Cn1c2nc([S+](C)[O-])sc2c2cnn(Cc3ccnc(N)n3)c(=O)c21 (stereo not shown) [Compound 36]
56 | < 0.3 | Cn1c2nc(Cc3cc[nH]n3)sc2c2cnn(Cc3ccc4scnc4c3)c(=O)c21 [Compound 88]
57 | > 0.8 | CC(=O)NC(c1cc[nH]n1)c1nc2c(s1)c1cnn(Cc3cccc4[nH]ncc34)c(=O)c1n2C (stereo not shown) [Compound 62]
58 | 0.301 to 0.8 | Cn1c2nc(Cc3ccns3)sc2c2cnn(Cc3cccc4[nH]ncc34)c(=O)c21 [Compound 82]
59 | > 0.8 | Cn1c2nc(-n3cnc(CS(=O)(=O)c4ccccc4)c3)sc2c2cnn(Cc3cccc4[nH]ncc34)c(=O)c21 [Compound 67]
60 | < 0.3 | Cn1c2nc(Cc3cnoc3)sc2c2cnn(Cc3cccc4[nH]ncc34)c(=O)c21 [Compound 65]
61 | < 0.3 | CC(=O)Nc1ccc(F)c(Cn2ncc3c4sc(Cc5cc[nH]n5)nc4n(C)c3c2=O)n1 [Compound 115]
62 | > 0.8 | Cn1c2nc([S+](C)[O-])sc2c2cnn(Cc3ccc(C(N)=O)cc3)c(=O)c21 (stereo not shown) [Compound 37]
63 | > 0.8 | Cn1c2nc([S+](C)[O-])sc2c2cnn(Cc3cnc(N)nc3)c(=O)c21 (stereo not shown) [Compound 34]
64 | > 0.8 | CSc1nc2c(s1)c1cnn(Cc3cn4cccnc4n3)c(=O)c1n2C [Compound 40]
65 | 0.301 to 0.8 | Cn1c2nc([S+](C)[O-])sc2c2cnn(Cc3ccc(C#N)cc3)c(=O)c21 (stereo not shown) [Compound 27]
66 | 0.301 to 0.8 | COC(=O)c1nc2c(s1)c1cnn(Cc3cccc(OC)c3)c(=O)c1n2C [Compound 13]
67 | < 0.3 | Cn1c2nc(Cc3cc[nH]n3)sc2c2cnn(Cc3[nH]ncc3Cl)c(=O)c21 [Compound 103]
68 | 0.301 to 0.8 | Cn1c2nc(SCc3ccccc3)sc2c2cnn(Cc3cccc4[nH]ncc34)c(=O)c21 [Compound 45]
69 | < 0.3 | Cn1c2nc(Cc3cc[nH]n3)sc2c2cnn(Cc3cccc4nn[nH]c34)c(=O)c21 [Compound 77]
70 | > 0.8 | C=CCn1ncc2c3sc(Cc4ccccn4)nc3n(C)c2c1=O [Compound 133]
71 | > 0.8 | Cn1c2nc(Cn3ccnc3)sc2c2cnn(Cc3ccnc(N)n3)c(=O)c21 [Compound 144]
72 | < 0.3 | Cn1c2nc(Cc3cc[nH]n3)sc2c2cnn(Cc3cccc(N)n3)c(=O)c21 [Compound 74]
73 | > 0.8 | Cn1c2nc(Cc3cc[nH]n3)sc2c2cnn(Cc3ccc(C(N)=O)cc3)c(=O)c21 [Compound 61]
